Measurements as given in paper PMC9981719, “A novel designed membrane-active peptide for the control of foodborne Salmonella enterica serovar Typhimurium” (Scientific Reports, 2023).
“Also recorded” adds a separate entry of the source. Where no end group is shown, it is not given here.

Tests used:
[1] = tested on: S. Typhimurium ATCC 13311; format: cell-based, Salmonella enterica serovar Typhimurium; details: ATCC 13311, 24 h
Procedure: Two-fold serial dilutions (0.98–250 μg/ml) of A11 with various concentrations of MgCl2 and NaCl (1 mM MgCl2, 5 mM MgCl2, 1% NaCl, 3% NaCl, 5% NaCl and 10% NaCl) were prepared and incubated at 37 °C for 60 min. Then, 50 μl of A11 in different salt concentrations were incubated with 50 μl of S. Typhimurium ATCC 13311 suspension (approximately 1 × 10^7 CFU/ml) at 37 °C with shaking. After 24 h, MICs were determined; all experiments were done in triplicate.

[2] = tested on: S. Typhimurium ATCC 13311; experiment: Effect of temperature on MIC; format: cell-based, Salmonella enterica serovar Typhimurium
Procedure: Two-fold serial dilutions (0.98–250 μg/ml) of A11 peptide were prepared and pre-incubated for 60 min at one of various temperatures (40 °C, 60 °C, 80 °C and 100 °C), and then cooled to 4 °C. After 30 min, 50 μl of heated peptide solutions were cultured with 50 μl of S. Typhimurium ATCC 13311 suspensions (approximately 1 × 10^7 CFU/ml). After 24 h incubation at 37 °C, MICs were determined; all experiments were done in triplicate.

[3] = tested on: Staphylococcus epidermidis ATCC 12228; format: cell-based
From the text: (§1) All tests were done in triplicate.

[4] = tested on: Staphylococcus aureus ATCC 25923; format: cell-based
From the text: as §1

[5] = tested on: Pseudomonas aeruginosa ATCC 27853; format: cell-based
From the text: as §1

[6] = tested on: Acinetobactero baumanii MT strain; format: cell-based
From the text: as §1

[7] = tested on: Bacillus cereus ATCC 11778; format: cell-based
From the text: as §1

[8] = tested on: Listeria monocytogenes 10403s; format: cell-based; details: 10403s
From the text: as §1

S. Typhimurium H1-001 = format: cell-based, Salmonella enterica serovar Typhimurium; details: strain H1-001
From the text: as §1

[9] = tested on: Salmonella Typhimurium ATCC 13311; format: cell-based, Salmonella enterica serovar Typhimurium; details: ATCC 13311, 18 h
From the text: as §1

S. Typhimurium H1-015 = format: cell-based, Salmonella enterica serovar Typhimurium; details: strain H1-015
From the text: as §1

S. Typhimurium H1-011 = format: cell-based, Salmonella enterica serovar Typhimurium; details: strain H1-011
From the text: as §1

[10] = tested on: L929 mouse fibroblast cells; experiment: In vitro cytotoxicity, MTT assay; format: cell-based; details: 0.98–250 µg/ml, 24 h
Procedure: The cytotoxicity of A11 was evaluated by the 3-(4,5 dimethylthiazol-2-yl)-2,5-diphenyltetrazolium bromide (MTT) assay. L929 mouse fibroblast cells were cultured in Dulbecco's Modified Eagle Medium (DMEM) supplemented with 1% (v/v) of 100 IU/ml penicillin/streptomycin and 10% (v/v) fetal bovine serum (FBS). The cells were maintained in an air atmosphere containing the 5% CO2 under high humidity at 37 °C. L929 cell lines were seeded into a sterile 96-well plate (1 × 10^4 cells/well) then incubated overnight and treated with different concentrations of A11 (0.98–250 µg/ml) for 24 h. Media were removed, and cultured cells were incubated with 100 µl of MTT solution (4 mg/ml) for 4 h at 37 °C. After removal of MTT solution, the formed formazan was dissolved in 100 µl DMSO. Absorbance was measured by microplate reader at 570 nm; untreated cells served as negative control and melittin-treated cells as a positive control. Cell viability was determined following this equation: Cell viability%=ODTreated/ODControl×100

[11] = tested on: human red blood cells (hRBCs); experiment: Hemolysis assay; format: cell-based
Procedure: The toxicity of all peptide derivatives toward human red blood cells (hRBCs) was investigated by evaluating the amount of hemoglobin released after exposure to peptide. Briefly, hRBCs (blood group O) were collected from a healthy adult volunteer into a heparin-coated polycarbonate tube. The sample was centrifuged for 5 min at 1000g to separate erythrocytes from buffy coat and plasma. The erythrocytes were washed at least three times with 1 × PBS and centrifuged for 5 min at 1000g or until supernatant was clear. The sample was resuspended in PBS to obtain 2% (v/v) hRBCs. To determine hRBC lysis, hRBC suspensions were incubated with equal volumes of various concentrations of peptide (0.98–250 µg/ml) for 1 h at 37 °C. Intact hRBCs were centrifuged for 5 min at 1000g, supernatants were transferred into new 96-well plates, and absorbance was measured at OD 405 nm. Untreated hRBCs (in PBS only) served as negative control (ODNegative) and hRBCs treated with 0.1% Triton X-100 as positive control (ODTritonX-100). Absorbance of samples was converted to percentage hemolysis according to the equation: Hemolysis%=ODSample-ODNegative/ODTriton X-100-ODNegative×100

In the case of WVKKVARKVVKIGRKVAR-NH2 [A11], the “MIC in 1 mM MgCl2” value [1] is reported as 15.63 µg/mL, the “MIC in 5 mM MgCl2” value [1] is reported as 31.25 µg/mL and the “MIC in 1% NaCl” value [1] is reported as 15.63 µg/mL. For the same substance, the “MIC in 3% NaCl” value [1] was 125 µg/mL, the “MIC in 5% NaCl” value [1] was 250 µg/mL and the “MIC in 10% NaCl” value [1] was over 250 µg/mL. The “MIC after 40 °C” value ([2]; peptide pre-incubated 60 min at 40 °C, cooled to 4 °C, then 24 h at 37 °C with bacteria, triplicate) was 15.63 µg/mL, the “MIC after 60 °C” value ([2]; peptide pre-incubated 60 min at 60 °C, cooled to 4 °C, then 24 h at 37 °C with bacteria, triplicate) was 15.63 µg/mL and the “MIC after 80 °C” value ([2]; peptide pre-incubated 60 min at 80 °C, cooled to 4 °C, then 24 h at 37 °C with bacteria, triplicate) was 15.63 µg/mL. For the same substance, the “MIC after 100 °C” value ([2]; peptide pre-incubated 60 min at 100 °C, cooled to 4 °C, then 24 h at 37 °C with bacteria, triplicate) was 15.63 µg/mL, the “MIC after heat treatment, same value at each temperature” value ([2]; various temperatures from 40 to 100 °C for 1 h) was 15.63 µg/mL and the MBC ([3]; ATCC 12228, 18 h) was 31.25 µg/mL. For the same substance, the MIC ([3]; ATCC 12228, 24 h) was 15.63 µg/mL, the MBC ([4]; ATCC 25923, 18 h) was > 250 (> 250) µg/ml and the MIC ([4]; ATCC 25923, 24 h) was > 250 (> 250) µg/ml. For the same substance, the MBC ([5]; ATCC 27853, 18 h) was 62.5 µg/mL, the MIC ([5]; ATCC 27853, 24 h) was 31.25 µg/mL and the MBC ([6]; 18 h) was 31.25 µg/mL. For the same substance, the MIC ([6]; 24 h) was 15.63 µg/mL, the MBC ([7]; ATCC 11778, 18 h) was 250 (250) µg/ml and the MIC ([7]; ATCC 11778, 24 h) was 250 (250) µg/ml. The MBC ([8]; 18 h) was 125 (125) µg/ml, the MIC ([8]; 24 h) was 125 (125) µg/ml and the MBC (S. Typhimurium H1-001) was 125 µg/mL. The MIC (S. Typhimurium H1-001) was 62.5 µg/mL, the “MIC, Control” value [9] was 15.63 µg/mL and the MBC (S. Typhimurium H1-015) was 62.5 (62.5) µg/ml. For the same substance, the MIC (S. Typhimurium H1-015) was 62.5 (62.5) µg/ml, the MBC (S. Typhimurium H1-011) was 62.5 (62.5) µg/ml and the MIC (S. Typhimurium H1-011) was 62.5 (62.5) µg/ml. For the same substance, the “cytotoxicity toward L929 cells (cell viability, MTT)” value [10] was “no cytotoxic activity; also recorded: no cytotoxic effect” and the “hemolytic activity at the MIC concentration” value [11] was “less than 2%”.
